For 79 compounds, RP-LC retention time results are on record in the METLIN SMRT retention time set (Domingo-Almenara et al. 2019).

The data set is described as follows: gradient 5% acetonitrile 3 min, to 50% in 2 min, to 85% in 15 min, held 3 min, 100 µL/min. The following applies: column: Zorbax Extend-C18 2.1 x 50 mm; eluents: water / acetonitrile, 0.1% formic acid. Summed up:
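Each retention time is based on an adduct peak selected computationally and verified by manual inspection. Measurements used HPLC–quadrupole time-of-flight mass spectrometry in positive and negative ionization mode on mixtures of ~100 pure standards. Chromatography ran on a Zorbax Extend-C18 column (2.1 × 50 mm, 1.8 μm) at 100 μL/min with water and acetonitrile, each containing 0.1% formic acid, and dead and dwell volumes of 40 μL and 900 μL.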
Compound `Cc1nn(C)c(C)c1C(C)NC(=O)CCC1CCCN(c2cc(NC3CC3)ncn2)C1` (centres undefined) yielded an RP-LC retention time of 594 s.
Consider `COCCN1CC2(CCN(S(=O)(=O)c3ccc(F)cc3F)CC2)C1c1ccncc1` (centres undefined), for which the RP-LC retention time worked out at 623 s.
Under `O=C(NCc1ccc(Cl)cc1)c1ccc(Oc2nccnc2N2CCSCC2)cc1` stands 986 s; under `CCOc1ccc(-c2ccc(=O)n(Cc3nc(-c4ccc(OC(C)C)cc4)no3)n2)cc1`, 826 s; under `Cc1nnc2cc(N3CCN(C(=O)Nc4ccc5c(c4)OCCO5)CC3)cnn12`, 595 s.
As for `Cc1cccc(CNC(=O)c2nnc(-c3ccc(S(=O)(=O)N4CCC(C)CC4)cc3)o2)c1`, the figure is 1100 s; as for `Cc1ccc(N2CCC(NC(=O)CC3CCCC3)C2=O)cc1` (centres undefined), 839 s; as for `CC(C)CC(=O)Nc1ccc2c(c1)nc(CN1CCCC1)n2C(C)C`, 612 s.
The compound `Cc1ccc(C)c(NC(=O)C2CCc3nc(N4CCOCC4)ncc3C2)c1` (centres undefined) registered an RP-LC retention time of 753 s.
`Cc1ccc(C2Cn3nc(-c4nc(-c5ccccc5)no4)cc3CO2)cc1` (centres undefined): the RP-LC retention time came to 1260 s.
Under `CCOc1ccccc1-c1noc(Cn2c(=O)n(C(C)CC)c(=O)c3ccccc32)n1` (centres undefined) stands 1140 s; under `O=C(NCc1ccccc1C(F)(F)F)C1CCN(c2cncnc2N2CCCC2)CC1`, 695 s.
On to `CCc1ccc(C2=C(C)C(N3CCCN(C(=O)CC(C)(C)C)CC3)=NS2(=O)=O)cc1`, for which the RP-LC retention time came out at 949 s.
As for `CCCCC(=O)Nc1nnc(SCc2nnc(-c3ccccc3)o2)s1`, the figure is 854 s; as for `Cc1nn2c(S(=O)(=O)NC3CCCCCC3)c(C)nc2s1`, 844 s.
In turn, `Cc1ccc(CNC(=O)CN2C(=O)CCCc3cc(S(=O)(=O)N4CCCCC4)ccc32)cc1` gave an RP-LC retention time of 891 s.
Under `CC(C)Oc1ccc(CNC(=O)C2(C)CCCCC(=O)N2)cc1` (centres undefined) stands 710 s.
Under `O=C(Cn1nc(-c2cccs2)ccc1=O)Nc1nc2c(s1)CCCC2` stands 741 s.
Under `O=C(CCc1c(-c2ccc(Cl)cc2)nc2ccccn12)NC1CCCCCC1` stands 712 s.
For the compound `COc1ccc([C@@H]2CC(=O)c3c(O)cc(O[C@@H]4O[C@H](CO)[C@@H](O)[C@H](O)[C@H]4OC4O[C@@H](C)[C@H](O)[C@@H](O)[C@H]4O)cc3O2)cc1O` (some centres undefined), the RP-LC retention time is 652 s.
As for `CN(C)CC[C@@H](c1ccc(Br)cc1)c1ccccn1`, the figure is 682 s; as for `Cc1ccc(C)c(N2CCN(C(=O)C3CCCCN3S(=O)(=O)c3ccc(F)cc3)CC2)c1` (centres undefined), 1250 s.
Under `Cc1csc(-c2ccc(N3CCN(C(=O)c4cc(F)ccc4Cl)CC3)nc2)n1` stands 910 s; under `CC(Oc1ccccc1)C(=O)Nc1ccc2c(c1)Sc1ncccc1C(=O)N2C(C)C` (centres undefined), 930 s; under `CSc1ccccc1NC(=O)C(=O)NCC1(CO)CC1`, 727 s.
As for `CCS(=O)(=O)NCc1ccc2c(c1)CCN2C(=O)c1ccccc1`, the figure is 657 s; as for `CSc1ccccc1NC(=O)c1nnn(-c2nc3c(s2)CCCC3)c1C`, 972 s.
`COc1cccc(NC(=O)C2CCN(S(C)(=O)=O)c3ccccc3O2)c1` (centres undefined): the RP-LC retention time was found to be 810 s.
Under `CN(C)c1nc2ncn3c(=O)n(CC(=O)NC4CCc5ccccc54)nc3c2s1` (centres undefined) stands 864 s.
In the case of `Cc1cc(C)c(NC(=O)CN2C(=O)NC3(CCCCC3)C2=O)c(C)c1`, the RP-LC retention time was found to be 777 s.
Compound `Cc1ccc(-c2nc3cnccn3c2NCCC(=O)NC(C)c2cccnc2)cc1` (centres undefined) gave an RP-LC retention time of 569 s.
Under `CS(=O)(=O)N1CCC(C(=O)NCc2ccccc2Cl)Oc2ccccc21` (centres undefined) stands 888 s.
`COc1cccc(-c2noc(Cn3ccn(-c4ccccc4)c(=O)c3=O)n2)c1` registered an RP-LC retention time of 812 s.
`COC(=O)c1ccccc1NC(=O)c1cc(N2C(=O)CCS2(=O)=O)ccc1Cl` yielded an RP-LC retention time of 840 s.
In turn, `Fc1cnccc1CN1CCC(N2CC3(CCCCC3)C2c2ccccc2)CC1` (centres undefined) yielded an RP-LC retention time of 596 s.
Under `CCc1noc(NC(C)=O)c1-c1ccc(C)c(S(=O)(=O)Nc2ccc(Cl)cc2C)c1` stands 888 s.
Under `Cc1ccc(NC(=O)N2CCC(n3cnc4ccccc4c3=O)CC2)c(C)c1` stands 751 s; under `COc1ccc(C2(C(=O)N3CCC(Oc4ccccc4-c4nc(C)no4)C3)CC2)cc1` (centres undefined), 880 s.
Consider `CCOc1ccc(C(C)NC(=O)C2CCCN(c3cnc4nccnc4c3)C2)cc1` (centres undefined), for which the RP-LC retention time worked out at 712 s.
As for `CCN1C(=O)c2cccnc2Sc2cc(CNC(=O)Cc3ccsc3)ccc21`, the figure is 728 s; as for `COc1ccc(C(=O)Nc2cc(-c3cccnc3)no2)c(OC)c1`, 802 s.
Consider `CCOc1ccccc1NC(=O)N1CCCC1c1cc(C)no1` (centres undefined), for which the RP-LC retention time is 854 s.
As to `Cc1nc(-c2cn(C)c3ncccc23)sc1C(=O)NCc1ccccc1F`, the RP-LC retention time was determined as 874 s.
Under `Cc1cccc(NC(=O)c2cn3c(n2)CCCC3)c1` stands 609 s.
As for `CCN(CC)S(=O)(=O)c1ccc2c(c1)CC(C(=O)NC1CCCC1)N2C(C)=O` (centres undefined), the figure is 855 s.
As to `Cc1cc(C(=O)NCc2ccco2)c2cccc(-c3ccccc3)c2n1`, the RP-LC retention time is 936 s.
For `CC(C)N1CCn2cc(S(=O)(=O)Nc3ccc(F)cc3Cl)cc2C1=O`, the RP-LC retention time turned out to be 778 s.
As for `N#CCSc1nnc2sc3ccccc3n12`, the figure is 671 s; as for `CN(C)C(CNC(=O)c1cc(-c2ccccc2)on1)c1cccs1` (centres undefined), 663 s.
As for `O=C(Nc1ccccc1NC(=O)C1CC(=O)N(c2ccc(F)cc2)C1)c1ccsc1` (centres undefined), the figure is 739 s.
As for `COc1ccc(NC(=O)N2CCN(Cc3nc4cc(-c5ccccc5)ccc4o3)CC2)cc1`, the figure is 823 s.
`COc1cc(Cl)ccc1C(=O)N1CCc2nc[nH]c2C1`: the RP-LC retention time came to 593 s.
As for `CCS(=O)(=O)c1ccc(CC(=O)Nc2ccc(F)cc2F)cc1`, the figure is 711 s.
Under `N#CC1(c2ccc(NC(=O)c3cccnc3NCc3ccncc3)cc2)CCCC1` stands 734 s; under `Cc1ccc(NC(=O)Cn2ccc3sccc3c2=O)cc1F`, 785 s; under `CCN(Cc1nc2ccccc2n1C)c1ccccc1`, 593 s.
Under `COc1ccccc1CNC(=O)C1CCCN(S(=O)(=O)c2cc(-c3noc(C)n3)cs2)C1` (centres undefined) stands 892 s.
In the case of `O=C(Cn1nc2c3sc(N4CCCC4)nc3ncn2c1=O)Nc1ccc(F)cc1`, the RP-LC retention time stood at 718 s.
Under `Cc1ccc(NC(=O)N2CCC(n3c(C(F)(F)F)nc4cccnc43)CC2)cc1F` stands 944 s; under `CC(C)CN1C(=O)c2cccn2CC1CNC(=O)c1cccs1` (centres undefined), 715 s.
Under `COc1ccc(-c2ncc3c(n2)CCN(C(=O)c2c(F)cccc2Cl)C3)cc1` stands 966 s.
Under `COCc1nc(C2CCN(C(=O)c3ccco3)C2)no1` (centres undefined) stands 648 s; under `CCOc1ccc(-c2csc(Nc3ccc(F)cn3)n2)cc1`, 1100 s; under `CCN(CC)CCNC(=O)c1nc(-c2oc3c(C)cccc3c2C)no1`, 677 s.
Consider `COc1ccc(NC(=O)CN2C(=O)NC3(CCCCC3)C2=O)cc1Cl`, for which the RP-LC retention time worked out at 778 s.
As for `Cc1csc(-c2ccc(CNC(=O)c3ccoc3)cc2)n1`, the figure is 781 s; as for `Cc1cccc(CC(=O)N2C[C@@H]3C[C@H]2C[C@@H]3NS(=O)(=O)c2ccccc2)c1`, 832 s; as for `CCOc1ccccc1N1CCN(Cc2nc(-c3ccc(N4CCCC4)nc3)no2)CC1`, 651 s.
In the case of `CC(C)(C)c1ccc(S(=O)(=O)c2nnn(-c3ccc4c(c3)OCCO4)c2N)cc1`, the RP-LC retention time worked out at 944 s.
Under `C=CCNC(=O)N1CCCN(C2=NS(=O)(=O)C(c3ccc(Cl)cc3)=C2C)CC1` stands 761 s; under `O=C(COc1ccccc1)N1CCc2nc(-c3ccc(Cl)cc3)ncc2C1`, 848 s; under `Cc1cc(N2CCN(C(=O)Nc3ccc(F)c(Cl)c3)CC2)nc(N2CCOCC2)n1`, 665 s.
As for `COc1ccccc1N1CCN(c2cc(SCC(=O)Nc3ccccc3Cl)ncn2)CC1`, the figure is 1110 s.
Under `Cc1cc(OCCCS(C)(=O)=O)cc(C)c1-c1cccc(COc2ccc3c(c2)OC[C@H]3CC(=O)O)c1` stands 1040 s; under `Cc1ccc(-c2nnc(Cc3nc(-c4ccncc4)no3)o2)cc1F`, 814 s; under `CC(C)(C)NC(=O)CN1c2ccc(F)cc2-c2ccccc2S1(=O)=O`, 905 s.
Compound `Cc1ccc(-c2nnc(-c3cccc(S(=O)(=O)N(C)C)c3)o2)cc1` yielded an RP-LC retention time of 986 s.
Compound `CCN1CCN(c2ccc(-c3nc(-c4ccc(OC)cc4)no3)cn2)CC1` came in with an RP-LC retention time of 696 s.
As for `CCOC(=O)c1c(C)[nH]c(C(=O)N2CCC(CC(=O)N3CCCC3)CC2)c1C`, the figure is 694 s.
